Laboratory results as given in patent publication US9296716B2, “Androgen receptor ligands” (THE PROVOST, FELLOWS, FOUNDATION SCHOLARS, & THE OTHER …, priority 2011, dated 2016).
“Also recorded” adds a separate entry of the source.

Experiments:
Type in all cases: cell-based
PC-3 cells = test: Cell viability (AlamarBlue), PC-3; conditions: 50 μM, 24 hours
Procedure: Cell viability was assessed after 24 hours of incubation with the test compounds initially at three different concentrations to establish their dose-responsiveness, considering 50 μM as the highest concentration (FIG. 10).
For cell viability (end point) assays LNCaP, PC-3 and PWR-1E cells were seeded at 2.5*10^4/ml density in 200 μl volume of a 96-well plate in triplicate and incubated for 24 hours prior testing. Test compounds were included at different concentrations to achieve a final concentration of 0.5% DMSO in each well. Effect of 0.5% DMSO on cell-viability was also evaluated. Cell viability was assessed after 24 hours of treatment using 10% Alamar Blue reagent (Invitrogen) for each well. Cell viability was monitored by the reduction of resazurin, a blue, cell-permeable and non-toxic compound, to resorufin, a red and highly fluorescent product. Viable cells continuously convert resazurin to resorufin, increasing the overall colour and fluorescence of the media surrounding cells. Fluorescence intensity can be quantitatively determined with a fluorescence microplate reader at excitation/emission 544 nm/590 nm (Spectramax Gemini). For hormone dependent cell proliferation assays in androgen deprived LNCaP cells, cells were seeded at 2*10^4 cells/ml in a 24-well plate in triplicate. […] A control for the vehicle was included to ensure no effect on viability could be detected. […]

LNCaP cells = test: LNCaP cell proliferation assay (androgen deprived, AlamarBlue); conditions: LNCaP, androgen deprived media, no DHT
Procedure: To determine the optimal DHT concentration and length of treatment required for cell proliferation assays, we tested a range of DHT concentrations in 0.1% DMSO for 5 or 7 days in LNCaP cells cultured in FBS stripped phenol red free media. […] Media and treatments were replaced every second incubation day (FIGS. 12 A and B)
(§1) For cell viability (end point) assays LNCaP, PC-3 and PWR-1E cells were seeded at 2.5*10^4/ml density in 200 μl volume of a 96-well plate in triplicate and incubated for 24 hours prior testing. Test compounds were included at different concentrations to achieve a final concentration of 0.5% DMSO in each well. Effect of 0.5% DMSO on cell-viability was also evaluated. Cell viability was assessed after 24 hours of treatment using 10% Alamar Blue reagent (Invitrogen) for each well. Cell viability was monitored by the reduction of resazurin, a blue, cell-permeable and non-toxic compound, to resorufin, a red and highly fluorescent product. Viable cells continuously convert resazurin to resorufin, increasing the overall colour and fluorescence of the media surrounding cells. Fluorescence intensity can be quantitatively determined with a fluorescence microplate reader at excitation/emission 544 nm/590 nm (Spectramax Gemini). For hormone dependent cell proliferation assays in androgen deprived LNCaP cells, cells were seeded at 2*10^4 cells/ml in a 24-well plate in triplicate. Cells were plated in phenol red free RPMI Glutamax (Invitrogen) supplemented with 10% charcoal-stripped FBS to deplete endogenous steroids 48 hours prior the assay as described in previous reports. […] Cells were treated with different concentrations of test compounds with or without 0.1 nM DHT to achieve a final concentration of 0.1% DMSO in each well. A control for the vehicle was included to ensure no effect on viability could be detected. Media and treatments were replaced every second day, after washing the cells twice with 1×PBS. Supernatants were collected after five days for secreted PSA levels evaluation and cell proliferation was assessed for the same plate using Alamar Blue in order to exclude non-specific effects due to toxicity issues.

[1] = system: PSA expression in LNCaP cells; test: PSA ELISA, secreted PSA in LNCaP cells; conditions: bell-shaped effect
Procedure: (§2) To investigate compounds effect on PSA expression, a common biomarker for prostate cancer, we utilized a human PSA ELISA assay.
as §1
Secreted levels of prostate specific antigen were evaluated with a commercially available kit (Quantikine Human Kallikrein 3/PSA Immunoassay, R&D systems). The assay was performed following manufacturer's guidelines. In brief, 50 μl of standards and cell culture samples were added to pre-coated wells containing assay diluent RD1W (R&D systems) and incubated for two hours at room temperature. […] Wells were washed and treated with colored substrate (Tetramethylbenzidine) for an additional 30 minutes, after which 50 μl of stop solution (Sulphuric Acid 2N) was added per well and absorbance (450 nm with correction at 540 nm) was read with a plate reader within 30 minutes (Versamax).

[2] = system: PSA expression in 22Rv1 cells; test: PSA ELISA, secreted PSA in 22Rv1 cells; conditions: 22Rv1
Procedure: as §2
(§3) We repeated the same experiment in 22Rv1 cell line.
Secreted levels of prostate specific antigen were evaluated with a commercially available kit (Quantikine Human Kallikrein 3/PSA Immunoassay, R&D systems). The assay was performed following manufacturer's guidelines. In brief, 50 μl of standards and cell culture samples were added to pre-coated wells containing assay diluent RD1W (R&D systems) and incubated for two hours at room temperature. Unbound material was washed several times and 200 μl of Horseradish Peroxidase (HRP) labeled PSA conjugate antibody was added to each well and further incubated for two hours at room temperature. Wells were washed and treated with colored substrate (Tetramethylbenzidine) for an additional 30 minutes, after which 50 μl of stop solution (Sulphuric Acid 2N) was added per well and absorbance (450 nm with correction at 540 nm) was read with a plate reader within 30 minutes (Versamax).

22Rv1 cells = test: 22Rv1 cell proliferation assay
Procedure: Thus, inhibition on cell proliferation by the compounds could not be evaluated (FIG. 14)
as §3
For cell viability (end point) assays LNCaP, PC-3 and PWR-1E cells were seeded at 2.5*10^4/ml density in 200 μl volume of a 96-well plate in triplicate and incubated for 24 hours prior testing. Test compounds were included at different concentrations to achieve a final concentration of 0.5% DMSO in each well. Effect of 0.5% DMSO on cell-viability was also evaluated. Cell viability was assessed after 24 hours of treatment using 10% Alamar Blue reagent (Invitrogen) for each well. Cell viability was monitored by the reduction of resazurin, a blue, cell-permeable and non-toxic compound, to resorufin, a red and highly fluorescent product. Viable cells continuously convert resazurin to resorufin, increasing the overall colour and fluorescence of the media surrounding cells. Fluorescence intensity can be quantitatively determined with a fluorescence microplate reader at excitation/emission 544 nm/590 nm (Spectramax Gemini). […] A control for the vehicle was included to ensure no effect on viability could be detected. […] Supernatants were collected after five days for secreted PSA levels evaluation and cell proliferation was assessed for the same plate using Alamar Blue in order to exclude non-specific effects due to toxicity issues.

CC(=O)O[C@]1(C(C)=O)CC[C@H]2[C@@H]3C=C(Cl)C4=CC(=O)[C@@H]5C[C@@H]5[C@]4(C)[C@H]3CC[C@@]21C [CPA, Cyproterone Acetate, reference compound]
effect on cell viability (PC-3 cells): minor effect | cell proliferation in absence of DHT / androgens (LNCaP cells): induces cell proliferation; also recorded: stimulates cell proliferation | maximal stimulatory concentration for PSA secretion [1]: 1 µM | PSA expression in absence of androgens [2]: remarkable increase | cell proliferation in absence of androgens (22Rv1 cells): couldn't see a remarkable increase
